Earlier results on two compounds are cited in patent publication US7816516B2, “Conjugates of hydroxyalkyl starch and an active agent” (Fresenius Kabi Deutschland GmbH, priority 2001, dated 2010).

The conditions of data set [1]: in vivo.
For data set [2] the following is noted: isolated haemoglobin; dimers eliminated via the kidneys.

Turning to `CO[C@@]12[C@H](COC(N)=O)C3=C(C(=O)C(C)=C(N)C3=O)N1C[C@@H]1N[C@@H]12` [mitomycin C], the “portion of renal elimination” value in data set [1] is given as “approximately 18%”. In the case of haemoglobin, in data set [2], the “biological half-life in the blood circulation” value is given as “approx. 1 hour”.
